In publication PMC5218480 (PLoS ONE, 2017):

System: MV-4-11 cells
Test: Gene expression microarray analysis (Affymetrix PrimeView) and GSEA
Format: cell-based, human
Set-up: RFU PODN (11730768_x_at) / Fold change /veh PODN (11730768_x_at) / RFU LINC00158 (11744669_a_at) / Fold change /veh LINC00158 (11744669_a_at) / RFU DUSP10 (11751237_a_at) / Fold change /veh DUSP10 (11751237_a_at) / RFU ID3 (11757404_x_at) / Fold change /veh ID3 (11757404_x_at) / RFU PLEKHG5 (11737974_s_at) / Fold change /veh PLEKHG5 (11737974_s_at) / RFU LRRC4B (11730491_at) / Fold change /veh LRRC4B (11730491_at) / RFU GIMAP4 (11747438_a_at) / Fold change /veh GIMAP4 (11747438_a_at) / RFU KRT8 (11758183_x_at) / Fold change /veh KRT8 (11758183_x_at) / RFU CNN1 (11734310_a_at) / Fold change /veh CNN1 (11734310_a_at) / RFU VPS37D (11726825_at) / Fold change /veh VPS37D (11726825_at) / RFU C10orf10 (11716522_x_at) / Fold change /veh C10orf10 (11716522_x_at) / RFU KIR2DL2 /// KIR2DL4 /// KIR2DL5A /// KIR2DL5B /// KIR2DS1 /// KIR2DS2 /// KIR2DS3 /// KIR2DS4 /// KIR3DL3 /// KIR3DL3 /// KIR3DS1 (11738374_at) / Fold change /veh KIR2DL2 /// KIR2DL4 /// KIR2DL5A /// KIR2DL5B /// KIR2DS1 /// KIR2DS2 /// KIR2DS3 /// KIR2DS4 /// KIR3DL3 /// KIR3DL3 /// KIR3DS1 (11738374_at) / RFU C1QL1 (11718748_at) / Fold change /veh C1QL1 (11718748_at) / RFU TMPRSS4 (11747572_a_at) / Fold change /veh TMPRSS4 (11747572_a_at) / RFU HAMP (11756126_x_at) / Fold change /veh HAMP (11756126_x_at) / RFU RNFT2 (11725882_a_at) / Fold change /veh RNFT2 (11725882_a_at) / RFU NR4A2 (11747474_a_at) / Fold change /veh NR4A2 (11747474_a_at) / RFU ABCC12 (11746883_a_at) / Fold change /veh ABCC12 (11746883_a_at) / RFU TMEM136 (11760407_x_at) / Fold change /veh TMEM136 (11760407_x_at) / RFU CLDN22 /// WWC2 (11732394_at) / Fold change /veh CLDN22 /// WWC2 (11732394_at) / RFU HLA-DPB1 (11760878_x_at) / Fold change /veh HLA-DPB1 (11760878_x_at) / RFU SPINT1 (11716480_a_at) / Fold change /veh SPINT1 (11716480_a_at) / RFU GAP43 (11754022_s_at) / Fold change /veh GAP43 (11754022_s_at) / RFU A4GNT (11735810_at) / Fold change /veh A4GNT (11735810_at) / RFU PRB3 (11715151_x_at) / Fold change /veh PRB3 (11715151_x_at) / RFU TUBB4B (11761932_at) / Fold change /veh TUBB4B (11761932_at) / RFU CAPN14 (11732068_a_at) / Fold change /veh CAPN14 (11732068_a_at) / RFU TMCC2 (11721928_a_at) / Fold change /veh TMCC2 (11721928_a_at) / RFU IRGQ (11745062_a_at) / Fold change /veh IRGQ (11745062_a_at) / RFU FAM174B (11720279_a_at) / Fold change /veh FAM174B (11720279_a_at) / RFU TMPRSS4 (11748680_a_at) / Fold change /veh TMPRSS4 (11748680_a_at) / RFU FAM212B (11763350_a_at) / Fold change /veh FAM212B (11763350_a_at) / RFU PLEKHG5 (11743358_a_at) / Fold change /veh PLEKHG5 (11743358_a_at) / RFU ZSCAN30 (11745921_a_at) / Fold change /veh ZSCAN30 (11745921_a_at) / RFU CMKLR1 (11741424_a_at) / Fold change /veh CMKLR1 (11741424_a_at) / RFU LOC101060620 /// MAPK8IP1 (11723275_at) / Fold change /veh LOC101060620 /// MAPK8IP1 (11723275_at) / RFU SPTSSB (11747773_x_at) / Fold change /veh SPTSSB (11747773_x_at) / RFU PRSS12 (11739890_at) / Fold change /veh PRSS12 (11739890_at) / RFU BIN1 (11741810_x_at) / Fold change /veh BIN1 (11741810_x_at) / RFU WNT11 (11732464_a_at) / Fold change /veh WNT11 (11732464_a_at) / RFU C10orf10 (11716521_a_at) / Fold change /veh C10orf10 (11716521_a_at) / RFU C5orf56 (11738089_at) / Fold change /veh C5orf56 (11738089_at) / RFU CYB561 (11721691_x_at) / Fold change /veh CYB561 (11721691_x_at) / RFU ANKRD19P (11752326_a_at) / Fold change /veh ANKRD19P (11752326_a_at) / RFU OR2T12 /// OR2T33 /// OR2T8 (11738714_s_at) / Fold change /veh OR2T12 /// OR2T33 /// OR2T8 (11738714_s_at) / RFU VCAN (11748164_a_at) / Fold change /veh VCAN (11748164_a_at) / RFU JSRP1 (11732532_at) / Fold change /veh JSRP1 (11732532_at) / RFU KRTAP10-11 (11738290_x_at) / Fold change /veh KRTAP10-11 (11738290_x_at) / RFU MYO3A (11730013_a_at) / Fold change /veh MYO3A (11730013_a_at) / RFU EBF3 (11725865_a_at) / Fold change /veh EBF3 (11725865_a_at) / RFU CAMK2N1 (11719241_x_at) / Fold change /veh CAMK2N1 (11719241_x_at) / RFU C5orf56 (11738088_a_at) / Fold change /veh C5orf56 (11738088_a_at) / RFU OLFML3 (11715873_a_at) / Fold change /veh OLFML3 (11715873_a_at) / RFU LOC100653217 /// NTM (11731650_a_at) / Fold change /veh LOC100653217 /// NTM (11731650_a_at) / RFU MAPK11 (11762145_a_at) / Fold change /veh MAPK11 (11762145_a_at) / RFU FIZ1 (11724087_x_at) / Fold change /veh FIZ1 (11724087_x_at) / RFU OASL (11726364_x_at) / Fold change /veh OASL (11726364_x_at) / RFU SOX15 (11748057_x_at) / Fold change /veh SOX15 (11748057_x_at) / RFU CD79A (11719716_a_at) / Fold change /veh CD79A (11719716_a_at) / RFU HIST1H1D (11736915_at) / Fold change /veh HIST1H1D (11736915_at) / RFU CASKIN2 (11723855_a_at) / Fold change /veh CASKIN2 (11723855_a_at) / RFU LOC730098 (11760151_x_at) / Fold change /veh LOC730098 (11760151_x_at) / RFU OR4N2 (11742367_at) / Fold change /veh OR4N2 (11742367_at) / RFU PRRT2 (11749266_a_at) / Fold change /veh PRRT2 (11749266_a_at) / RFU SNX32 (11753110_a_at) / Fold change /veh SNX32 (11753110_a_at) / RFU CDHR5 (11726645_a_at) / Fold change /veh CDHR5 (11726645_a_at) / RFU RCAN1 (11760418_a_at) / Fold change /veh RCAN1 (11760418_a_at) / RFU FAM167A (11723789_a_at) / Fold change /veh FAM167A (11723789_a_at) / RFU FAM26E (11764081_at) / Fold change /veh FAM26E (11764081_at) / RFU ISYNA1 (11749810_s_at) / Fold change /veh ISYNA1 (11749810_s_at) / RFU ACY1 (11761880_at) / Fold change /veh ACY1 (11761880_at) / RFU 11764098_at / Fold change /veh 11764098_at / RFU SAMD14 (11745864_x_at) / Fold change /veh SAMD14 (11745864_x_at) / RFU NPB (11741838_a_at) / Fold change /veh NPB (11741838_a_at) / RFU TMPRSS6 (11731388_a_at) / Fold change /veh TMPRSS6 (11731388_a_at) / RFU KRTAP10-2 (11738614_at) / Fold change /veh KRTAP10-2 (11738614_at) / RFU ARHGAP8 /// PRR5-ARHGAP8 (11727945_x_at) / Fold change /veh ARHGAP8 /// PRR5-ARHGAP8 (11727945_x_at) / RFU KRTAP5-7 /// NADSYN1 (11734609_at) / Fold change /veh KRTAP5-7 /// NADSYN1 (11734609_at) / RFU RASL12 (11751679_a_at) / Fold change /veh RASL12 (11751679_a_at) / RFU CDKN2B (11736163_a_at) / Fold change /veh CDKN2B (11736163_a_at) / RFU PRF1 (11729649_at) / Fold change /veh PRF1 (11729649_at) / RFU, ZNF638 /// ZNF638-IT1 / Fold change vs veh, ZNF638 /// ZNF638-IT1 / RFU, PANK3 / Fold change vs veh, PANK3 / RFU, SH3YL1 / Fold change vs veh, SH3YL1 / RFU, ZEB2 / Fold change vs veh, ZEB2 / RFU, NRIP1 / Fold change vs veh, NRIP1 / RFU, PTTG1IP / Fold change vs veh, PTTG1IP / RFU, CAPN2 / Fold change vs veh, CAPN2 / RFU, MED14 / Fold change vs veh, MED14 / RFU, SNORA58 / Fold change vs veh, SNORA58 / RFU, C1orf63 / Fold change vs veh, C1orf63 / RFU, LRRFIP1 / Fold change vs veh, LRRFIP1 / RFU, NDUFAF7 / Fold change vs veh, NDUFAF7 / RFU, SLC12A2 / Fold change vs veh, SLC12A2 / RFU, IBTK / Fold change vs veh, IBTK / RFU, ESF1 / Fold change vs veh, ESF1 / Fold change vs veh, TMEM50B / RFU, TAOK1 / Fold change vs veh, TAOK1 / RFU, ACBD3 / Fold change vs veh, ACBD3 / RFU, TMA16 / Fold change vs veh, TMA16 / RFU, RWDD3 / Fold change vs veh, RWDD3 / RFU, BCAT1 / Fold change vs veh, BCAT1 / RFU, EDEM3 / Fold change vs veh, EDEM3 / RFU, TMEM33 / Fold change vs veh, TMEM33 / RFU, WDR75 / Fold change vs veh, WDR75 / RFU, AHCTF1 / Fold change vs veh, AHCTF1 / RFU, TFRC / Fold change vs veh, TFRC / RFU, ZDHHC17 / Fold change vs veh, ZDHHC17 / RFU, NOM1 / Fold change vs veh, NOM1 / RFU, ARL8B / Fold change vs veh, ARL8B / RFU, ZBTB11 / Fold change vs veh, ZBTB11 / RFU, TAMM41 / Fold change vs veh, TAMM41 / RFU, KIAA1704 /// LOC100996395 / Fold change vs veh, KIAA1704 /// LOC100996395 / RFU, ING1 / Fold change vs veh, ING1 / RFU, TRMT61B / Fold change vs veh, TRMT61B / RFU, FUBP3 / Fold change vs veh, FUBP3 / RFU, TP53 / Fold change vs veh, TP53 / RFU, TNKS2 / Fold change vs veh, TNKS2 / RFU, ZFP14 / Fold change vs veh, ZFP14 / RFU, ACTR2 / Fold change vs veh, ACTR2 / RFU, PPP3R1 / Fold change vs veh, PPP3R1 / RFU, PIK3R1 / Fold change vs veh, PIK3R1 / RFU, HNRNPA1 / Fold change vs veh, HNRNPA1 / RFU, RNF170 / Fold change vs veh, RNF170 / RFU, ZNF28 / Fold change vs veh, ZNF28 / RFU, RNGTT / Fold change vs veh, RNGTT / RFU, OGT / Fold change vs veh, OGT / RFU, BRD1 / Fold change vs veh, BRD1 / RFU, MARS / Fold change vs veh, MARS / RFU, ZNF655 / Fold change vs veh, ZNF655 / RFU, FAHD1 / Fold change vs veh, FAHD1 / RFU, BDP1 / Fold change vs veh, BDP1 / RFU, LRRCC1 / Fold change vs veh, LRRCC1 / RFU, ARID1A / Fold change vs veh, ARID1A / RFU, ZNF146 / Fold change vs veh, ZNF146 / RFU, ZNF330 / Fold change vs veh, ZNF330 / RFU, GPN3 / Fold change vs veh, GPN3 / RFU, C9orf123 / Fold change vs veh, C9orf123 / RFU, N4BP2L2 / Fold change vs veh, N4BP2L2 / RFU, ARFIP1 / Fold change vs veh, ARFIP1 / RFU, FAM179B / Fold change vs veh, FAM179B / RFU, BCL10 / Fold change vs veh, BCL10 / RFU, UHRF1BP1L / Fold change vs veh, UHRF1BP1L / RFU, BET1 / Fold change vs veh, BET1 / RFU, CNOT2 / Fold change vs veh, CNOT2 / RFU, ZNF268 / Fold change vs veh, ZNF268 / Fold change vs veh, ZNF507 / RFU, DGCR2 / Fold change vs veh, DGCR2 / RFU, WDSUB1 / Fold change vs veh, WDSUB1 / Fold change vs veh, HSP90B1 /// MIR3652 / RFU, ADSS / Fold change vs veh, ADSS / RFU, GK / Fold change vs veh, GK / RFU, ZNF148 / Fold change vs veh, ZNF148 / RFU, TAF9 / Fold change vs veh, TAF9 / RFU, SLC1A5 / Fold change vs veh, SLC1A5 / RFU, SLMO2 / Fold change vs veh, SLMO2 / RFU, ABCC4 / Fold change vs veh, ABCC4 / RFU, LOC101060439 /// RAP1B / Fold change vs veh, LOC101060439 /// RAP1B / RFU, RFX7 / Fold change vs veh, RFX7 / RFU, GTPBP10 / Fold change vs veh, GTPBP10 / RFU, CNEP1R1 / Fold change vs veh, CNEP1R1 / RFU, BIVM-ERCC5 /// ERCC5 / Fold change vs veh, BIVM-ERCC5 /// ERCC5 / RFU, ILF3 / Fold change vs veh, ILF3 / RFU 11762660_at / Fold change /veh 11762660_at / RFU VCAN (11757783_s_at) / Fold change /veh VCAN (11757783_s_at) / RFU DDX43 (11728927_at) / Fold change /veh DDX43 (11728927_at) / RFU KRT8 (11758188_x_at) / Fold change /veh KRT8 (11758188_x_at) / RFU NKD1 (11759106_at) / Fold change /veh NKD1 (11759106_at) / RFU SRD5A1 (11742802_a_at) / Fold change /veh SRD5A1 (11742802_a_at) / RFU TPSAB1 /// TPSB2 (11721975_s_at) / Fold change /veh TPSAB1 /// TPSB2 (11721975_s_at) / RFU GSTM3 (11746129_a_at) / Fold change /veh GSTM3 (11746129_a_at) / RFU IL23R (11737362_x_at) / Fold change /veh IL23R (11737362_x_at) / RFU TMEM51 (11727254_a_at) / Fold change /veh TMEM51 (11727254_a_at) / RFU PIWIL2 (11732686_x_at) / Fold change /veh PIWIL2 (11732686_x_at) / RFU ORM1 (11744905_x_at) / Fold change /veh ORM1 (11744905_x_at) / RFU CCDC152 (11743942_at) / Fold change /veh CCDC152 (11743942_at) / RFU ECM1 (11717891_a_at) / Fold change /veh ECM1 (11717891_a_at) / RFU IL23R (11748794_a_at) / Fold change /veh IL23R (11748794_a_at) / RFU TNFAIP8L3 (11732012_x_at) / Fold change /veh TNFAIP8L3 (11732012_x_at) / RFU MBOAT4 (11741988_at) / Fold change /veh MBOAT4 (11741988_at) / RFU 11764193_at / Fold change /veh 11764193_at / RFU TMEM53 (11763286_at) / Fold change /veh TMEM53 (11763286_at) / RFU MAGEB2 (11727129_at) / Fold change /veh MAGEB2 (11727129_at) / RFU TMEM200A (11744735_a_at) / Fold change /veh TMEM200A (11744735_a_at) / RFU CCDC152 (11751479_a_at) / Fold change /veh CCDC152 (11751479_a_at) / RFU FAM211A (11726209_a_at) / Fold change /veh FAM211A (11726209_a_at) / RFU RGS16 (11746705_a_at) / Fold change /veh RGS16 (11746705_a_at) / RFU VCAN (11755009_s_at) / Fold change /veh VCAN (11755009_s_at) / RFU RHOB (11743442_s_at) / Fold change /veh RHOB (11743442_s_at) / RFU RGS16 (11720943_a_at) / Fold change /veh RGS16 (11720943_a_at) / RFU RGS16 (11720944_at) / Fold change /veh RGS16 (11720944_at) / RFU, VPS4B / Fold change vs veh, VPS4B / RFU, CREB1 / Fold change vs veh, CREB1 / RFU, DNAJC13 / Fold change vs veh, DNAJC13 / RFU, GNAQ / Fold change vs veh, GNAQ / RFU, CDK5R1 / Fold change vs veh, CDK5R1 / RFU, ZRANB3 / Fold change vs veh, ZRANB3 / RFU, CUL4A / Fold change vs veh, CUL4A / RFU, CCNY / Fold change vs veh, CCNY / RFU, UFL1 / Fold change vs veh, UFL1 / RFU, COG3 / Fold change vs veh, COG3 / RFU, DIAPH2 / Fold change vs veh, DIAPH2 / RFU, SKA2 / Fold change vs veh, SKA2 / RFU, AFF3 / Fold change vs veh, AFF3 / RFU, LMF1 / Fold change vs veh, LMF1 / RFU, IPO11 / Fold change vs veh, IPO11 / RFU, DFFB / Fold change vs veh, DFFB / RFU, FOXP1 / Fold change vs veh, FOXP1 / RFU, CARD8 / Fold change vs veh, CARD8 / RFU, STRN3 / Fold change vs veh, STRN3 / RFU, ADK / Fold change vs veh, ADK / RFU, RASSF2 / Fold change vs veh, RASSF2 / RFU, WIPF1 / Fold change vs veh, WIPF1 / RFU, LARP1B / Fold change vs veh, LARP1B / RFU, RASA1 / Fold change vs veh, RASA1 / RFU, RB1 / Fold change vs veh, RB1 / RFU, PPFIA1 / Fold change vs veh, PPFIA1 / RFU, MAT2A / Fold change vs veh, MAT2A / RFU, CCT5 / Fold change vs veh, CCT5 / RFU, WDR92 / Fold change vs veh, WDR92 / RFU, CUX1 / Fold change vs veh, CUX1 / RFU, TTC7A / Fold change vs veh, TTC7A / RFU, TMEM135 / Fold change vs veh, TMEM135 / RFU, DEPTOR / Fold change vs veh, DEPTOR / RFU, CPM / Fold change vs veh, CPM / RFU, DNAJB6 / Fold change vs veh, DNAJB6 / RFU, CACNA2D3 / Fold change vs veh, CACNA2D3 / RFU, DTX4 / Fold change vs veh, DTX4 / RFU, TFCP2 / Fold change vs veh, TFCP2 / RFU, GMCL1 /// GMCL1P1 / Fold change vs veh, GMCL1 /// GMCL1P1 / RFU, AEBP2 / Fold change vs veh, AEBP2 / RFU, SNHG1 /// SNORD22 /// SNORD25 /// SNORD26 /// SNORD27 /// SNORD28 /// SNORD29 /// SNORD31 / Fold change vs veh, SNHG1 /// SNORD22 /// SNORD25 /// SNORD26 /// SNORD27 /// SNORD28 /// SNORD29 /// SNORD31 / Fold change (Aza/veh), C12orf56 (ProbeSet 11735607_a_at) / Fold change (ACY-1035/veh), C12orf56 (ProbeSet 11735607_a_at) / Fold change (Aza/veh), FGFR1OP (ProbeSet 11751329_s_at) / Fold change (ACY-1035/veh), FGFR1OP (ProbeSet 11751329_s_at) / Fold change (Aza/veh), VPS36 (ProbeSet 11739960_a_at) / Fold change (ACY-1035/veh), VPS36 (ProbeSet 11739960_a_at) / RFU SYPL1 (11715823_x_at) / Fold change /veh SYPL1 (11715823_x_at) / RFU IGFBP7 (11715501_s_at) / Fold change /veh IGFBP7 (11715501_s_at) / RFU REEP3 (11722064_at) / Fold change /veh REEP3 (11722064_at) / RFU IGLL1 (11728026_x_at) / Fold change /veh IGLL1 (11728026_x_at): dose or concentration left out as unconfirmed
Settings: ProbeSet 11734937_a_at; LIST B

For `Nc1ncn([C@@H]2O[C@H](CO)[C@@H](O)[C@H]2O)c(=O)n1` [azacitidine], the “RFU, CNOT2” value was 887.01 RFU.
